Calls of active or inactive are those of the source. No cut-off for these calls is given here.

Consider 6 compounds from ChEMBL document CHEMBL4145594, “Discovery of N-Alkyl Piperazine Side Chain Based CXCR4 Antagonists with Improved Drug-like Properties” (ACS Med Chem Lett, 2018).

One series addresses Mu-type opioid receptor (Homo sapiens, UniProt P35372). The experiment in a line: Inhibition of mu opioid receptor (unknown origin).
The target of another series is Acetylcholinesterase (Homo sapiens, UniProt P22303). The experiment in a line: Inhibition of AChE (unknown origin).
Series [1] deals with T1, Alpha-2A adrenergic receptor (Homo sapiens, UniProt P08913).
T1 sequence (P08913 whole entry): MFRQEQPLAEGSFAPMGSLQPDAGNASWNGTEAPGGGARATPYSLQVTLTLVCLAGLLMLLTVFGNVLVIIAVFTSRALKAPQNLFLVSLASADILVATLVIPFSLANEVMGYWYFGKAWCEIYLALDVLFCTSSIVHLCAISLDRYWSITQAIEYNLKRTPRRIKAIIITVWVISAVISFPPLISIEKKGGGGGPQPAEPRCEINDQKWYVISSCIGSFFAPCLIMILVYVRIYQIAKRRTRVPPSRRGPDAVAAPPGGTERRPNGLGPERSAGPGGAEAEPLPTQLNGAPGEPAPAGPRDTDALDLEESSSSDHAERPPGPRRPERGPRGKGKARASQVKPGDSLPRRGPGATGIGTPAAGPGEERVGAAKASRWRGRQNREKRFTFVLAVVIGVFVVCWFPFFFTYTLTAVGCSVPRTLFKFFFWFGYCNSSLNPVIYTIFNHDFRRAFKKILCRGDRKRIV
The experiment in a line: Inhibition of adrenergic alpha2A receptor (unknown origin).

Series [2] has as its target Acetylcholine receptor subunit alpha (Homo sapiens, UniProt P02708). Briefly: Inhibition of nAChR alpha1 (unknown origin).
Series [3] addresses T2, C-X-C chemokine receptor type 4 (Homo sapiens, UniProt P61073). The experiment in a line: Agonist activity at CXCR4 in human CCRF-CEM cells measured for 90 secs by calcium flux assay. Type of series: functional, cell-based.
Series [4] is filed under the species Homo sapiens. Briefly: Therapeutic index, ratio of IC50 for mu opioid receptor (unknown origin) to IC50 for CXCR4 in human CCRF-CEM cells. Type of series: cell-based.
Series [5] is filed under the species Homo sapiens. Briefly: Therapeutic index, ratio of IC50 for nAChR alpha1 (unknown origin) to IC50 for CXCR4 in human CCRF-CEM cells. Format: cell-based.
The next series addresses Cytochrome P450 2D6 (Homo sapiens, UniProt P10635).
Series [6] concerns the target Muscarinic acetylcholine receptor. The experiment in a line: Antagonist activity at mAChR in human CCRF-CEM cells assessed as inhibition of acetylcholine-induced calcium flux pretreated for 25 mins followed by acetylcholine addition measured for 90 secs by calcium-dye based assay. Format: functional, cell-based.
Series [7] is filed under the species Homo sapiens. The experiment in a line: Therapeutic index, ratio of IC50 for adrenergic alpha2A receptor (unknown origin) to IC50 for CXCR4 in human CCRF-CEM cells. Format: cell-based.
The species named for series [8] is Homo sapiens. Briefly: Therapeutic index, ratio of IC50 for AChE (unknown origin) to IC50 for CXCR4 in human CCRF-CEM cells. Type of series: cell-based.
The next series in a line: in vitro. As to conditions: PAMPA, pH 7.4.
A short description of series [9]: Stability in rat liver microsomes assessed as parent compound remaining at 0.5 uM after 10 mins by LC-MS analysis.
Series [10] has as its target T2, C-X-C chemokine receptor type 4. Briefly: Antagonist activity at CXCR4 in human CCRF-CEM cells assessed as inhibition of […]-induced calcium flux pretreated for 25 mins followed by […] addition measured for 90 secs by calcium-dye based assay. Type of series: functional, cell-based.
The next series has as its target Cytochrome P450 3A4 (Homo sapiens, UniProt P08684). Briefly: Inhibition of CYP3A4 (unknown origin). Type of series: ADME.
Series [11] in a line: Stability in human liver microsomes assessed as parent compound remaining at 0.5 uM after 10 mins by LC-MS analysis.
Series [12] is described as follows: Stability in mouse liver microsomes assessed as parent compound remaining at 0.5 uM after 10 mins by LC-MS analysis.

Acetylcholinesterase, sequence (P22303 whole entry): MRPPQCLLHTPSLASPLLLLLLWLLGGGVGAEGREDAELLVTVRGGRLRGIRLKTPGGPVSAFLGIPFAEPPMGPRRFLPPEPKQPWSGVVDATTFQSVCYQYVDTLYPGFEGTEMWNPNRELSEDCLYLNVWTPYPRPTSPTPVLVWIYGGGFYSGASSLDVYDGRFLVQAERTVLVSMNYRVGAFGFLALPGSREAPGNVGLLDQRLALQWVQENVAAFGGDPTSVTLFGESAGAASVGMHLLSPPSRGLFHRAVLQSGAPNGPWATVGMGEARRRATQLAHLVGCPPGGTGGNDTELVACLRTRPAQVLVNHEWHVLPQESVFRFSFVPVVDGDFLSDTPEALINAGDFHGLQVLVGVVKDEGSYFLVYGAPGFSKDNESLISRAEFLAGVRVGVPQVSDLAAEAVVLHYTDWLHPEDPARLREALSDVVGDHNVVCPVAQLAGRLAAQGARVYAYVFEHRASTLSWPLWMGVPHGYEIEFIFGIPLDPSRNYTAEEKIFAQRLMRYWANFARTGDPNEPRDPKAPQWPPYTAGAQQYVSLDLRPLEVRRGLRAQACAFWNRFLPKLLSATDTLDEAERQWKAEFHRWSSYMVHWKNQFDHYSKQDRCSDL
T2 sequence (P61073 whole entry): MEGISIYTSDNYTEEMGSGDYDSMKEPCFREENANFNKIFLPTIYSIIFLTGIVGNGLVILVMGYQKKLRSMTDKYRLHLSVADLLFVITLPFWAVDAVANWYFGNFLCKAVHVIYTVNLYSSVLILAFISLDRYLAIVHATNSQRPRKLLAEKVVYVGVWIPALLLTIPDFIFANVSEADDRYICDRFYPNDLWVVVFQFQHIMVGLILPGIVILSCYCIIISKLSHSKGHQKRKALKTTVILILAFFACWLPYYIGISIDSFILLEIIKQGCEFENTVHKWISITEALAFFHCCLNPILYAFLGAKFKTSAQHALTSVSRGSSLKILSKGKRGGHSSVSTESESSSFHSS
Mu-type opioid receptor, sequence (P35372 whole entry): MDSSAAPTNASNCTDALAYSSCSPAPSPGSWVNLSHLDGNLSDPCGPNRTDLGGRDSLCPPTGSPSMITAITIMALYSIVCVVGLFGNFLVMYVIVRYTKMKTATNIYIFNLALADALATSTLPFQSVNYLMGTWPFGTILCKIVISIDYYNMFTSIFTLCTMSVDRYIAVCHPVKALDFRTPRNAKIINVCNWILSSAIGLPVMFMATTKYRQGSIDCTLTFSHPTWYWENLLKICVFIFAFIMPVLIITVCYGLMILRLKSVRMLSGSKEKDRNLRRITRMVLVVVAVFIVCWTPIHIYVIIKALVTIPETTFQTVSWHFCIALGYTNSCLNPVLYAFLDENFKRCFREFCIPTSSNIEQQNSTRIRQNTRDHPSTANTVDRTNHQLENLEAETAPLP
Acetylcholine receptor subunit alpha, sequence (P02708 whole entry): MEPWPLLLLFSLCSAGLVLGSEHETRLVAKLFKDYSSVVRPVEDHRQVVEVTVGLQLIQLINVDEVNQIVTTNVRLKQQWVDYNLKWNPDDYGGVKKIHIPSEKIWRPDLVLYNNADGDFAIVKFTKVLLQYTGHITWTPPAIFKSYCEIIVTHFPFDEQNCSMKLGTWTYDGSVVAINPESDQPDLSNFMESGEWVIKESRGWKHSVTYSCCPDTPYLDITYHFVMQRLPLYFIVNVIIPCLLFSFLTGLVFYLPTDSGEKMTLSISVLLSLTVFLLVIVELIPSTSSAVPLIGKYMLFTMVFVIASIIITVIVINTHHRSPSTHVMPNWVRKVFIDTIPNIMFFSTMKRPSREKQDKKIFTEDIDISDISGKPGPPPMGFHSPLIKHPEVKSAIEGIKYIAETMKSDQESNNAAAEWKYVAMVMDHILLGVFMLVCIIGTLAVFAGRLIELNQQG
Cytochrome P450 2D6, sequence (P10635 whole entry): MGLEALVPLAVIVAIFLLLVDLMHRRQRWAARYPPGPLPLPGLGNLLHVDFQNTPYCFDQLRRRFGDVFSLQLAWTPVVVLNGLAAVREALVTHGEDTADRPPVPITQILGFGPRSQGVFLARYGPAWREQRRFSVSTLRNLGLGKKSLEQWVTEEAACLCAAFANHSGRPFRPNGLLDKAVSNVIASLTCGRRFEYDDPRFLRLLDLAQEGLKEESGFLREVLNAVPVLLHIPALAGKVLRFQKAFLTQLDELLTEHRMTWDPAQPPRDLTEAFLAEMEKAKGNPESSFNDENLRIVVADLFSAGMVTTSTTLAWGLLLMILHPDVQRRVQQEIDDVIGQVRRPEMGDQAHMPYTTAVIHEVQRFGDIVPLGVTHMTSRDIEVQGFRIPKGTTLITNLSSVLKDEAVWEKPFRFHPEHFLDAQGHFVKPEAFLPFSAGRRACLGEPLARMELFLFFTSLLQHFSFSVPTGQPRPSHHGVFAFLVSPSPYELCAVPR
Cytochrome P450 3A4, sequence (P08684 whole entry): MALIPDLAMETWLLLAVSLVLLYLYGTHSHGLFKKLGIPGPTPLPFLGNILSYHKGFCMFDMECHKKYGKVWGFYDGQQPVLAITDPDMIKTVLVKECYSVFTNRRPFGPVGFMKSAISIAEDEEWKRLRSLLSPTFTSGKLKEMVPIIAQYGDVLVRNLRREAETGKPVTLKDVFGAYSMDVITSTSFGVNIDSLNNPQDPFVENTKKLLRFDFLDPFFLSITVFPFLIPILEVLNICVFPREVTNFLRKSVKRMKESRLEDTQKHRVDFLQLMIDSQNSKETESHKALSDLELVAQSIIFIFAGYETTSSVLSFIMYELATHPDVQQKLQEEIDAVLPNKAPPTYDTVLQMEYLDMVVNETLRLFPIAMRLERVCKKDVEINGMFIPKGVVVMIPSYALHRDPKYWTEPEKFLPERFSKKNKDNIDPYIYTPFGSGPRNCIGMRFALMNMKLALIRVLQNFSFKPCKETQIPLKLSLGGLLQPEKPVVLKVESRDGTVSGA
Description for Cytochrome P450 2D6: Inhibition of recombinant human CYP2D6 expressed in insect cell microsomes using AMMC as substrate pretreated for 30 mins followed by NADPH addition measured after 45 mins by fluorescence assay
Description for in vitro: Permeability of the compound at pH 7.4 after 4 hrs by PAMPA

Take `NCCCCN(C[C@H]1Cc2ccccc2CN1)[C@H]1CCCc2cccnc21`: the IC50 at Mu-type opioid receptor was 14.9 µM; on Acetylcholinesterase it was more than 30 µM; in [1] it was 3.7 µM; in [2] it was more than 30 µM. In [3], the outcome was inactive.
As to `c1ccc2c(c1)CN[C@@H](CN(CC[C@H]1CCCNC1)[C@H]1CCCc3cccnc31)C2`, the Ratio IC50 is 100 to 1000 in the series listed under Homo sapiens [4], less than 100 in the series listed under Homo sapiens [5], 100 to 1000 in the series filed under Homo sapiens [7] and less than 100 in the series listed under Homo sapiens [8]. Moreover, the IC50 at Mu-type opioid receptor was 11.3 µM; on Cytochrome P450 2D6 it was 0.11 µM; in series [6], more than 14 µM; on Acetylcholinesterase it was 10.7 µM; in [1], 5.9 µM; in series [10], 0.016 µM. Moreover, the IC50 against Cytochrome P450 3A4 was more than 12 µM; in series [2], 11.3 µM. In addition, in “in vitro”, the Papp at 4 h was determined as 5.5 ×10⁻⁶ cm/s. The share remaining at 10 min, 0.5 µM turned out to be 55% in [9], 93% in series [11] and 56% in series [12]. Besides, the result in series [3] was inactive.
For `c1ccc2c(c1)CN[C@@H](CN(CCN1CCNCC1)[C@H]1CCCc3cccnc31)C2`, the half-inhibitory concentration (IC50) against Cytochrome P450 2D6 is 4.21 µM; in [6] it was more than 14 µM; in [10], 0.553 µM; at Cytochrome P450 3A4, more than 12 µM. Further, in the series listed under Homo sapiens [8], the Ratio IC50 was less than 100. Also, the Papp at 4 h in “in vitro” stood at 1 ×10⁻⁶ cm/s. Moreover, the amount remaining at 10 min, 0.5 µM in series [9] is 62%; in series [11], 96%; in series [12], 79%. Also, the result in series [3] was inactive.
For the compound `c1ccc2c(c1)CN[C@@H](CN(CCCN1CCN(C3CC3)CC1)[C@H]1CCCc3cccnc31)C2`, the IC50 against Cytochrome P450 2D6 is 6.04 µM; in series [6], more than 17 µM; in series [10], 0.05 µM; against Cytochrome P450 3A4 it was more than 20 µM. Besides, the Papp at 4 h in the series “in vitro” was found to be 50.5 ×10⁻⁶ cm/s. For the same compound, the share remaining at 10 min, 0.5 µM in series [9] came to 2%; in [11], 21%; in [12], 3%. In addition, in series [3], the outcome was inactive.
For the compound `CC(C)N1CCN(CCCN(C[C@H]2Cc3ccccc3CN2)[C@H]2CCCc3cccnc32)CC1`, the half-maximal inhibitory concentration (IC50) is 6.65 µM at Cytochrome P450 2D6, more than 17 µM in series [6], 0.062 µM in series [10] and more than 20 µM on Cytochrome P450 3A4. Moreover, the Papp at 4 h in the series “in vitro” is 34.4 ×10⁻⁶ cm/s. Moreover, the results for the amount remaining at 10 min, 0.5 µM in [9], in [11] and in series [12] were 4%, 46% and 58%, respectively. For the same compound, in series [3], the outcome was inactive.
`c1ccc2c(c1)CN[C@@H](CN(CCCN1CCNCC1)[C@H]1CCCc3cccnc31)C2`: the Ratio IC50 in the series listed under Homo sapiens [4], in the series listed under Homo sapiens [5], in the series filed under Homo sapiens [7] and in the series filed under Homo sapiens [8] was less than 100 in each case. The IC50 against Mu-type opioid receptor is more than 30 µM; against Cytochrome P450 2D6 it was 2.14 µM; in series [6], more than 14 µM; at Acetylcholinesterase, more than 30 µM; in series [1], more than 30 µM; in series [10] it was 0.017 µM. The figures for the IC50 (against Cytochrome P450 3A4; in series [2]) were more than 12 µM and more than 30 µM, respectively. Further, the amount remaining at 10 min, 0.5 µM in series [9] turned out to be 100%; in series [11], 100%; in [12], 92%. Further, the outcome in series [3] was inactive.
